From patent US20120122860A1, “SOLID FORMS OF SULFONAMIDES AND AMINO ACIDS” (Plexxikon, Inc., priority 2009, published 2012)
Values belong to the compound of their own block, whether it stands above or below them.

Assays:
[1] = Dog PK study of solid forms and formulations; type: in vivo, Beagle dogs
Experimental: Pharmacokinetic properties of various compositions prepared from the complexes may be assessed in male Sprague Dawley rats or male Beagle dogs, and compared to the properties of the free base compound. Rats are dosed daily with compound either by IV injections via surgically implanted jugular catheters or by oral gavage (PO). Each compound is prepared as a 20 mg/mL stock solution in dimethyl sulfoxide, which is further diluted to provide the dosing stock at the desired concentration for the IV or PO formulations. For IV dosing, the dosing stock is diluted into a 1:1:8 mixture of Solutol®:ethanol:water. For PO dosing, the dosing stock is diluted into 1% methylcellulose. In a cassette format, 5 compounds are diluted to 0.5 mg/mL each for IV dosing and 0.4 mg/mL each for PO dosing and dosed at 1 mg/kg (2 mL/kg) or 2 mg/kg (5 mL/kg), respectively. For IV dosed animals, tail vein blood samples are collected with lithium heparin anticoagulant at 5, 15, 30, and 60 minutes and 4, 8, and 24 hours post dosing each day. For PO dosed animals, tail vein blood samples are collected with lithium heparin anticoagulant at 30 minutes, 1, 2, 4, 8 and 24 hours post dosing each day. Dogs are dosed daily by oral capsules in a suitable formulation at 50 mg/mL. Cephalic vein blood samples are collected with lithium heparin anticoagulant at 30 minutes, 1, 2, 4, 8 and 24 hours post dosing each day. All samples are processed to plasma and frozen for later analysis of each compound by LC/MS/MS. Plasma levels as a function of time are plotted to assess the AUC (ng*hr/mL).
The arginine complex of N-[3-(5-chloro-1H-pyrrolo[2,3-b]pyridine-3-carbonyl)-2,4-difluoro-phenyl]-4-trifluoromethyl-benzenesulfonamide P-1021 was analyzed in a number of dog PK studies following the above or similar protocols. These were done primarily at Bridge Laboratories, Beijing, China, with one study done at Seventh Wave Laboratories LLC, Chesterfield, Mo. Plasma samples were analyzed to determine the plasma concentration (PPD Development, Madison, Wis.) at each time point from which the Cmax and AUC∞ were determined. In some instances, the materials are combined in the solvents indicated, and the solvent is removed by evaporation, or by spray drying where indicated. In these tables, unless indicated otherwise, the dose is mg/dog, and the Cmax/dose ((ng/mL)/(mg/kg)) and the AUC∞/dose ((ng*hr/mL)/(mg/kg)) are calculated assuming a 10 kg weight for the dogs.
This study was done at Seventh Wave, containers were provided with 13.259 g, 39.776 g or 66.301 g of this formulation and suspended in 360 mL of 1.5% Polysorbate 20 vehicle and dosed by oral gavage.
N-[3-(5-chloro-1H-pyrrolo[2,3-b]pyridine-3-carbonyl)-2,4-difluoro-phenyl]-4-trifluoromethyl-benzenesulfonamide P-1021 was analyzed in a dog PK study wherein the arginine complex of N-[3-(5-cyano-1H-pyrrolo[2,3-b]pyridine-3-carbonyl)-2,4-difluoro-phenyl]-4-trifluoromethyl-benzenesulfonamide P-1092 was also assessed.

B-Raf = B-Raf (Homo sapiens, UniProt P15056); experiment: Kinase activity assay, B-Raf; type: biochemical; details: read-out: activity toward kinase B-Raf, IC50
Flt1 = Flt1 (Homo sapiens, UniProt P17948); experiment: Kinase activity assay, Flt1
Src = Src (Homo sapiens, UniProt P12931); experiment: Kinase activity assay, Src
Kdr = Kdr (Homo sapiens, UniProt P35968); experiment: Kinase activity assay, Kdr
C-Raf = C-Raf (Homo sapiens, UniProt P04049); experiment: Kinase activity assay, C-Raf
B-Raf V600E = B-Raf V600E (Homo sapiens, UniProt P15056, V600E); experiment: Kinase activity assay, B-Raf V600E; type: biochemical; details: read-out: activity toward kinase B-Raf V600E, IC50
Fms = Fms (Homo sapiens, UniProt P07333); experiment: Kinase activity assay, Fms
Kit = Kit (Homo sapiens, UniProt P10721); experiment: Kinase activity assay, Kit
[2] = Table 5B, forms of P-1021, dog, dose 150 mg/dog, 10 kg weight assumed
[3] = Table 7B, P-1021 arginine complex, dog, dose 200 mg/dog, 10 kg weight assumed
[4] = Table 7B, P-1021 arginine complex, dog, dose 400 mg/dog, 10 kg weight assumed
[5] = Table 8B, P-1021 arginine complex, dog, oral gavage, dose 249 mg/kg
[6] = Table 8B, P-1021 arginine complex, dog, oral gavage, dose 795 mg/kg
[7] = Table 8B, P-1021 arginine complex, dog, oral gavage, dose 965 mg/kg
[8] = test articles are solid forms of P-1021, dog, oral, 100 mg/dog, calculated assuming a 10 kg weight
[9] = Table 9B, dog, dose 200 mg/dog, 10 kg weight assumed
[10] = Table 9B, dog, dose 400 mg/dog, 10 kg weight assumed

Chain of B-Raf (P15056 whole entry): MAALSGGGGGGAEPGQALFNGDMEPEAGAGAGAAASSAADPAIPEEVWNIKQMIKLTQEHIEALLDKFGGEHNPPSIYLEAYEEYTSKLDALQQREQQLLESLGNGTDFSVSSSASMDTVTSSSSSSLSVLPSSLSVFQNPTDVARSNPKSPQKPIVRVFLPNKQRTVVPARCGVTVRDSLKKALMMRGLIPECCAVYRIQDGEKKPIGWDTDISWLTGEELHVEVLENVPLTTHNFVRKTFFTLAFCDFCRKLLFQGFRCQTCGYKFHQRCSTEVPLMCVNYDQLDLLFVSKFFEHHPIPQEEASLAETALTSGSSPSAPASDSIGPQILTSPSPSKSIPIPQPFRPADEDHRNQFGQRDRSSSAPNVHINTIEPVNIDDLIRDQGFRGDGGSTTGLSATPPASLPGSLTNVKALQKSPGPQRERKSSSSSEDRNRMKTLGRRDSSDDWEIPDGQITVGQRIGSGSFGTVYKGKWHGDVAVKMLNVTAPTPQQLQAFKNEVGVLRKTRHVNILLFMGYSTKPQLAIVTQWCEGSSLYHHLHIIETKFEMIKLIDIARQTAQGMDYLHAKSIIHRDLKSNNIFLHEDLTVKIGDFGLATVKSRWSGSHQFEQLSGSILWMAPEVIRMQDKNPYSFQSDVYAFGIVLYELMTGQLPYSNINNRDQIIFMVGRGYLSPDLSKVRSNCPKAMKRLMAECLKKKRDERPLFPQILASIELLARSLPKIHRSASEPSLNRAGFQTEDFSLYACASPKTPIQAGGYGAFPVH
Chain of Kit (P10721 26-976): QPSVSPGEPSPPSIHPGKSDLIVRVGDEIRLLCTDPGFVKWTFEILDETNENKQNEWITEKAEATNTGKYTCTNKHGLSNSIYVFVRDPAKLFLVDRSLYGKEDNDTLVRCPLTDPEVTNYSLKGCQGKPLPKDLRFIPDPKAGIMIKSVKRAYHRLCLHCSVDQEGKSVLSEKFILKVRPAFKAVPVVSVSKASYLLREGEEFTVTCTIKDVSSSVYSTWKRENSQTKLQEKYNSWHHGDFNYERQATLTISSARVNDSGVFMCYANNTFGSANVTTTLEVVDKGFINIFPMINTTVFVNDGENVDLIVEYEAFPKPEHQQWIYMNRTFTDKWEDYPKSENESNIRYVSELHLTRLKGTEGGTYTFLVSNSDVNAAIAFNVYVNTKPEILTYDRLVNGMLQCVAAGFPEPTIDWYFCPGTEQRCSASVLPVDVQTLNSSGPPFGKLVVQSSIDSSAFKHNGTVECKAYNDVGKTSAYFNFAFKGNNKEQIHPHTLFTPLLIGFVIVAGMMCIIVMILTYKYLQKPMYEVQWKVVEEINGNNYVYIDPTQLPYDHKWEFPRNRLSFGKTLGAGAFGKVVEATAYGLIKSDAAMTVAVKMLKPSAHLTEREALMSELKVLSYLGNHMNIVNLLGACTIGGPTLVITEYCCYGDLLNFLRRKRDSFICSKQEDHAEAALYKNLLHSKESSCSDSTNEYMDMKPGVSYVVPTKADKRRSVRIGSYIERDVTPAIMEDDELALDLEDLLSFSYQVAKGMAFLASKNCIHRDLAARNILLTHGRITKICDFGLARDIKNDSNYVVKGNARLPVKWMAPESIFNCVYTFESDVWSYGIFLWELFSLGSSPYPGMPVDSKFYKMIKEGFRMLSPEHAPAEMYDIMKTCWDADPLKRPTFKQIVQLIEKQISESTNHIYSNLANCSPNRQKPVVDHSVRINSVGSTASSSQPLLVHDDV
Chain of C-Raf (P04049 whole entry): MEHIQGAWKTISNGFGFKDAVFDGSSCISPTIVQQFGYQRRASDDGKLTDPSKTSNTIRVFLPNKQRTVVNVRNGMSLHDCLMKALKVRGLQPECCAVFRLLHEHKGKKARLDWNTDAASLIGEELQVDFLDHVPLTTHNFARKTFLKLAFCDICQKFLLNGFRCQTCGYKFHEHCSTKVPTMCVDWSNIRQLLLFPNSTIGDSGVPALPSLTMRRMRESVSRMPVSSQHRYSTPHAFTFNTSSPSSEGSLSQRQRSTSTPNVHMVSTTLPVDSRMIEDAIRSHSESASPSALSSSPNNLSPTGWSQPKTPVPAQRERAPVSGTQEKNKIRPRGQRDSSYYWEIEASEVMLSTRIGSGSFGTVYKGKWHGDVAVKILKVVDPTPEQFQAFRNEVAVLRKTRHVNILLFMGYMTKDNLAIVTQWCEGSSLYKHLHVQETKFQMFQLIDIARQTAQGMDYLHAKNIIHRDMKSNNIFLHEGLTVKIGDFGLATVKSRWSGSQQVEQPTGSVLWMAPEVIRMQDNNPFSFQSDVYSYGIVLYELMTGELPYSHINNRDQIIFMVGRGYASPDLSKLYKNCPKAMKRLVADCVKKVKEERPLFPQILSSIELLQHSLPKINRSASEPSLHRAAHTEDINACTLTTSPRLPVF
Chain of B-Raf V600E (P15056 whole entry V600E): as the sequence (P15056 whole entry) above, with V600E counted along it
Chain of Src (P12931 whole entry): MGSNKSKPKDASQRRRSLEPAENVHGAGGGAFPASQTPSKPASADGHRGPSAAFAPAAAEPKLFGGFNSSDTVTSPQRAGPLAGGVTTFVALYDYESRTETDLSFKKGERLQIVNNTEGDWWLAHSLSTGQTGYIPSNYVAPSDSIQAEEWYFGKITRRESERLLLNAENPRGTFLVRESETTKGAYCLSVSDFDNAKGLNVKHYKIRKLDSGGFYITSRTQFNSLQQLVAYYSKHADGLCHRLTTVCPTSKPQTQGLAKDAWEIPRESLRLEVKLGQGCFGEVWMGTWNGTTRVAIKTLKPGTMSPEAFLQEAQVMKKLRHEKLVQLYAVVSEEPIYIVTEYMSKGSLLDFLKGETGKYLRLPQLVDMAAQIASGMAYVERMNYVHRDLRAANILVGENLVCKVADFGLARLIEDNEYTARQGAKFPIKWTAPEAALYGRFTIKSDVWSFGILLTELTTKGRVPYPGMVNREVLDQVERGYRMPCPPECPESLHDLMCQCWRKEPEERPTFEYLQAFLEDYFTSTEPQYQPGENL
Chain of Fms (P07333 20-972): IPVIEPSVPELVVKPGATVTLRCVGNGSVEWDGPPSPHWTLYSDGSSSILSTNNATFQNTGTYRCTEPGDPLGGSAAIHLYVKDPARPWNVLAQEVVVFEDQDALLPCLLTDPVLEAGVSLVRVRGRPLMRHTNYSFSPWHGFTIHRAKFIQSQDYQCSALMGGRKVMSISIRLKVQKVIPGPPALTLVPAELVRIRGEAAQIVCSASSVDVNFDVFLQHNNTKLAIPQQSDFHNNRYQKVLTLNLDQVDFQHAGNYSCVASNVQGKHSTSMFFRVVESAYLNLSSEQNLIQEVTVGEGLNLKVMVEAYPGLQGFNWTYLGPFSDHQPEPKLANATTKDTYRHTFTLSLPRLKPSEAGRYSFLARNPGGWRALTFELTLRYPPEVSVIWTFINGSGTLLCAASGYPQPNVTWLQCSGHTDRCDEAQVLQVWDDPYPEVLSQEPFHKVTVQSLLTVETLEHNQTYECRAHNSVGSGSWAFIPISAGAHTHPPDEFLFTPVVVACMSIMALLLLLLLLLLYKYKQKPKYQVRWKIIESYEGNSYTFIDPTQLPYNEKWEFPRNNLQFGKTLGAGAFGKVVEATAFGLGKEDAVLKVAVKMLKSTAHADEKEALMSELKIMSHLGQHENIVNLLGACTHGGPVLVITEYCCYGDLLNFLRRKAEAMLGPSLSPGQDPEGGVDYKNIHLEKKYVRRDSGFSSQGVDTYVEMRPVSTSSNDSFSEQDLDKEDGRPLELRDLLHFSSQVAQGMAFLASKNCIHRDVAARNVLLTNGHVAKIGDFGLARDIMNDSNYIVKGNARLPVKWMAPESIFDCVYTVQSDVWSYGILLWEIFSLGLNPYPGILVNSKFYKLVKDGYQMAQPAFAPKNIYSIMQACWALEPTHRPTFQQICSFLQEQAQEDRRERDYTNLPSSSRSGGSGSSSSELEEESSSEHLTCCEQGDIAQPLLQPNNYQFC

- AUC/dose ([1]; P-1021 arginine complex dosed at 400 mg per dog (Table 6B, Table 7B), typical value): greater than 12,000 (ng*hr/mL)/(mg/kg)
- AUC∞/dose [1, 2]: 34,693 (ng*hr/mL)/(mg/kg)
- Cmax/dose [1, 2]: 810 (ng/mL)/(mg/kg)
- AUC∞/dose [1, 3]: 22,480 (ng*hr/mL)/(mg/kg)
- Cmax/dose [1, 3]: 960 (ng/mL)/(mg/kg)
- AUC∞/dose [1, 4]: 12,120 (ng*hr/mL)/(mg/kg)
- Cmax/dose [1, 4]: 455 (ng/mL)/(mg/kg)
- AUC∞/dose [1, 5]: 11,247 (ng*hr/mL)/(mg/kg)
- Cmax/dose [1, 5]: 208 (ng/mL)/(mg/kg)
- AUC∞/dose [1, 6]: 7,457 (ng*hr/mL)/(mg/kg)
- Cmax/dose [1, 6]: 107 (ng/mL)/(mg/kg)
- AUC∞/dose [1, 7]: 3,883 (ng*hr/mL)/(mg/kg)
- Cmax/dose [1, 7]: 178 (ng/mL)/(mg/kg)
- AUC∞/dose [1, 8]: 16,850 (ng*hr/mL)/(mg/kg)
- Cmax/dose [1, 8]: 830.5 (ng/mL)/(mg/kg)
Structure (SMILES): O=C(c1c(F)ccc(NS(=O)(=O)c2ccc(C(F)(F)F)cc2)c1F)c1c[nH]c2ncc(Cl)cc12 [P-1021 arginine complex, N-[3-(5-chloro-1H-pyrrolo[2,3-b]pyridine-3-carbonyl)-2,4-difluoro-phenyl]-4-trifluoromethyl-benzenesulfonamide]

- IC50 (B-Raf): ≤ 10 µM
- IC50 (Flt1): ≤ 10 µM
- IC50 (Src): ≤ 10 µM
- IC50 (Kdr): ≤ 10 µM
- IC50 (C-Raf): ≤ 10 µM
- IC50 (B-Raf V600E): ≤ 10 µM
Structure (SMILES): CCCS(=O)(=O)Nc1ccc(F)c(C(O)c2c[nH]c3ncc(-c4ccc(C(=O)NCC)nc4)cc23)c1F (centres unmarked) [P-2150, 5-(3-{[2,6-Difluoro-3-(propane-1-sulfonylamino)-phenyl]-hydroxy-methyl}-1H-pyrrolo[2,3-b]pyridin-5-yl)-pyridine-2-carboxylic acid ethylamide]

- AUC∞/dose [1, 2]: 5,270 (ng*hr/mL)/(mg/kg)
- Cmax/dose [1, 2]: 482 (ng/mL)/(mg/kg)
- AUC∞/dose [1, 8]: 8,031 (ng*hr/mL)/(mg/kg)
- Cmax/dose [1, 8]: 581.3 (ng/mL)/(mg/kg)
Structure (SMILES): O=C(c1c(F)ccc(NS(=O)(=O)c2ccc(C(F)(F)F)cc2)c1F)c1c[nH]c2ncc(Cl)cc12 [Free base, N-[3-(5-chloro-1H-pyrrolo[2,3-b]pyridine-3-carbonyl)-2,4-difluoro-phenyl]-4-trifluoromethyl-benzenesulfonamide]

Structure (SMILES): O=C(c1c(F)ccc(NS(=O)(=O)c2ccc(C(F)(F)F)cc2)c1F)c1c[nH]c2ncc(Cl)cc12 [P-1021, N-[3-(5-chloro-1H-pyrrolo[2,3-b]pyridine-3-carbonyl)-2,4-difluoro-phenyl]-4-trifluoromethyl-benzenesulfonamide]
- Cmax and AUC / exposure, comparison in words ([1]; dog PK studies, arginine complex): favorable Cmax and AUC compared to free base and other formulations

- IC50 (B-Raf): ≤ 10 µM
- IC50 (Flt1): ≤ 10 µM
- IC50 (Kdr): ≤ 10 µM
- IC50 (Fms): ≤ 10 µM
- IC50 (Kit): ≤ 10 µM
- IC50 (C-Raf): ≤ 10 µM
- IC50 (B-Raf V600E): ≤ 10 µM
Structure (SMILES): CCCS(=O)(=O)Nc1ccc(F)c(C(=O)c2c[nH]c3ncc(-c4ccc(S(=O)(=O)CC)cc4)cc23)c1F [P-2218, Propane-1-sulfonic acid {3-[5-(4-ethanesulfonyl-phenyl)-1H-pyrrolo[2,3-b]pyridine-3-carbonyl]-2,4-difluoro-phenyl}-amide]

- AUC∞/dose [1, 9]: 11,720 (ng*hr/mL)/(mg/kg)
- Cmax/dose [1, 9]: 550 (ng/mL)/(mg/kg)
- AUC∞/dose [1, 10]: 12,580 (ng*hr/mL)/(mg/kg)
- Cmax/dose [1, 10]: 617.5 (ng/mL)/(mg/kg)
Structure (SMILES): N#Cc1cnc2[nH]cc(C(=O)c3c(F)ccc(NS(=O)(=O)c4ccc(C(F)(F)F)cc4)c3F)c2c1 [P-1092 arginine complex, N-[3-(5-cyano-1H-pyrrolo[2,3-b]pyridine-3-carbonyl)-2,4-difluoro-phenyl]-4-trifluoromethyl-benzenesulfonamide]

- AUC∞/dose [1, 2]: 482 (ng*hr/mL)/(mg/kg)
- Cmax/dose [1, 2]: 33 (ng/mL)/(mg/kg)
Structure (SMILES): O=C(c1c(F)ccc(NS(=O)(=O)c2ccc(C(F)(F)F)cc2)c1F)c1c[nH]c2ncc(Cl)cc12 [Amorphous free base, N-[3-(5-chloro-1H-pyrrolo[2,3-b]pyridine-3-carbonyl)-2,4-difluoro-phenyl]-4-trifluoromethyl-benzenesulfonamide]

- IC50 (B-Raf): ≤ 10 µM
- IC50 (Flt1): ≤ 10 µM
- IC50 (Kdr): ≤ 10 µM
- IC50 (Fms): ≤ 10 µM
- IC50 (Kit): ≤ 10 µM
- IC50 (B-Raf V600E): ≤ 10 µM
Structure (SMILES): CCCS(=O)(=O)Nc1ccc(F)c(C(=O)c2c[nH]c3ncc(-c4cnc(OCCCN(C)C)nc4)cc23)c1F [P-2203, Propane-1-sulfonic acid (3-{5-[2-(3-dimethylamino-propoxy)-pyrimidin-5-yl]-1H-pyrrolo[2,3-b]pyridine-3-carbonyl}-2,4-difluoro-phenyl)-amide]

- AUC∞/dose [1, 2]: 2,849 (ng*hr/mL)/(mg/kg)
- Cmax/dose [1, 2]: 116 (ng/mL)/(mg/kg)
Structure (SMILES): O=C(c1c(F)ccc(NS(=O)(=O)c2ccc(C(F)(F)F)cc2)c1F)c1c[nH]c2ncc(Cl)cc12 [Mesylate, N-[3-(5-chloro-1H-pyrrolo[2,3-b]pyridine-3-carbonyl)-2,4-difluoro-phenyl]-4-trifluoromethyl-benzenesulfonamide]

- IC50 (B-Raf): ≤ 10 µM
- IC50 (Flt1): ≤ 10 µM
- IC50 (Src): ≤ 10 µM
- IC50 (Kdr): ≤ 10 µM
- IC50 (C-Raf): ≤ 10 µM
- IC50 (B-Raf V600E): ≤ 10 µM
Structure (SMILES): CCCS(=O)(=O)Nc1ccc(F)c(C(=O)c2c[nH]c3ncc(C(=O)NCCO)cc23)c1F [P-2217, 3-[2,6-Difluoro-3-(propane-1-sulfonylamino)-benzoyl]-1H-pyrrolo[2,3-b]pyridine-5-carboxylic acid (2-hydroxy-ethyl)-amide]

- IC50 (B-Raf): ≤ 10 µM
- IC50 (Flt1): ≤ 10 µM
- IC50 (Src): ≤ 10 µM
- IC50 (Kdr): ≤ 10 µM
- IC50 (C-Raf): ≤ 10 µM
- IC50 (B-Raf V600E): ≤ 10 µM
Structure (SMILES): CCCS(=O)(=O)Nc1ccc(F)c(C(=O)c2c[nH]c3ncc(-c4cncnc4)cc23)c1F [P-2162, Propane-1-sulfonic acid [2,4-difluoro-3-(5-pyrimidin-5-yl-1H-pyrrolo[2,3-b]pyridine-3-carbonyl)-phenyl]-amide]

- IC50 (B-Raf): ≤ 10 µM
- IC50 (Flt1): ≤ 10 µM
- IC50 (Kdr): ≤ 10 µM
- IC50 (Fms): ≤ 10 µM
- IC50 (C-Raf): ≤ 10 µM
- IC50 (B-Raf V600E): ≤ 10 µM
Structure (SMILES): CCCS(=O)(=O)Nc1cccc(C(=O)c2c[nH]c3ncc(C(=O)OC)cc23)c1F [P-2404, 3-[2-Fluoro-3-(propane-1-sulfonylamino)-benzoyl]-1H-pyrrolo[2,3-b]pyridine-5-carboxylic acid methyl ester]

- IC50 (B-Raf): ≤ 10 µM
- IC50 (Flt1): ≤ 10 µM
- IC50 (Kdr): ≤ 10 µM
- IC50 (Fms): ≤ 10 µM
- IC50 (Kit): ≤ 10 µM
- IC50 (C-Raf): ≤ 10 µM
- IC50 (B-Raf V600E): ≤ 10 µM
Structure (SMILES): CCCS(=O)(=O)Nc1ccc(F)c(C(=O)c2c[nH]c3ncc(C(=O)NC4CC4)cc23)c1F [P-2201, 3-[2,6-Difluoro-3-(propane-1-sulfonylamino)-benzoyl]-1H-pyrrolo[2,3-b]pyridine-5-carboxylic acid cyclopropylamide]

- AUC∞/dose [1, 8]: 5,067 (ng*hr/mL)/(mg/kg)
- Cmax/dose [1, 8]: 181.5 (ng/mL)/(mg/kg)
Structure (SMILES): O=C(c1c(F)ccc(NS(=O)(=O)c2ccc(C(F)(F)F)cc2)c1F)c1c[nH]c2ncc(Cl)cc12 [Sulfate, N-[3-(5-chloro-1H-pyrrolo[2,3-b]pyridine-3-carbonyl)-2,4-difluoro-phenyl]-4-trifluoromethyl-benzenesulfonamide]
